Results from patent publication US20220135580A1, “HYDROXYPH[…], METHODS AND USES THEREOF” (priority 2019, published 2022).
“Also recorded” adds a separate entry of the source.

Experiments:
[1] = tested on: differentiated 3T3-L1 spheroids; assay: lipolysis: free glycerol in the medium of 3T3-L1 spheroids; format: cell-based, murine; conditions: 3T3-L1 spheroids exposed over 48 h
Protocol: (§1) FIG. 2: Evaluation of lipid content (Nile red) and viability (calcein AM) in differentiated 3T3-L1 spheroids after exposure to compound 1 (hpa) and compound 2 (hfa) over 48 h. […] Statistical difference to the solvent control were analysed by One-Way ANOVA, followed by a Dunnett's multiple comparison post-test (***p-value<0.001, **p-value <0.01, *p-value <0.05). Quantification of free glycerol (lipolysis) on the medium where 3T3-L1 organoids were exposed to compound 1 (hpa) and compound 2 (hfa) over 48 h. […] Kolmogorov-Smirnov test was used to test normality of the data, followed by a Dunnett's multiple comparison post-test (***p-value <0.001, **p-value <0.01, *p-value <0.05).
(§2) In an embodiment, the bioactivity of hpa and hfa was confirmed in a further assay, using the murine pre-adipocyte cell line 3T3L1. […] In an embodiment, the activity in differentiated 3T3L1 spheroids was confirmed and analysis of lipolysis performed.

cancer cells = conditions: Cheng et al., 2001; cited from earlier work
[2] = tested on: differentiated 3T3-L1 spheroids; assay: viability (calcein AM) in differentiated 3T3-L1 spheroids; format: cell-based, murine; conditions: for reduction of viability of spheroids: not significant; for toxicity by calcein AM staining: 3T3L1 spheroids
Protocol: as §1, §2

[3] = tested on: neutral lipids in zebrafish larvae; assay: zebrafish Nile red fat metabolism assay (lipid reducing activity); format: in vivo, Zebrafish (Danio rerio); conditions: for IC50 / lipid reducing activity / Nile red staining: zebrafish larvae, exposure for 48 h; for IC50: Nile red; for fluorescence intensity of Nile red: all tested concentrations (156 ng/mL to 10 μg/mL)
Protocol: FIG. 1.A: Representative images of the zebrafish Nile red fat metabolism assay. Nile red fluorescence signal indicates neutral lipids around the yolk sac and stomach/intestine. […] A solvent control (0.1% dimethyl sulfoxide, DMSO) and positive control group (50 μM resveratrol, REV) was included.
FIG. 1.B: Quantification of lipid-reducing activity in the zebrafish Nile Red fat metabolism assay after exposure for 48 h. Values are expressed as mean fluorescence intensity (MFI) relative to the DMSO group and are derived from 6 to 8 individual larvae per treatment group. The data are represented as box-whisker plots (5 to 95 percentiles). Asterisks highlight significant differences compared to the DMSO group (****p<0.0001; ***p<0.001; **p<0.01; *p<0.05).
Zebrafish (Danio rerio) has become an attractive model organism for biomedical research. In the study of complex metabolic disorders like obesity, the use of more complex in vivo model systems as small whole animal models can bring significant advantages. For drug discovery, zebrafish assays can be used complementary to rodent assays, with easier handling, high predictive validity and cost-efficiency while compatible with high-throughput screening. […] The zebrafish Nile red fat metabolism assay analyses the capacity of compounds to reduce neutral lipids in zebrafish larvae in vivo.
(§3) 13^2(S)-hydroxy-pheophytin a (hpa) is a known compound, and belongs to the photosystem II complex of the chloroplast. The second is a novel compound, 13^2(S)-hydroxy-pheofarnesin a (hfa), which is structurally related to hpa.
In an embodiment, chlorophyll a and chlorophyll b were tested for lipid reducing activity on the zebrafish Nile red fat metabolism assay.

[4] = tested on: differentiated 3T3-L1 spheroids; assay: lipid content (Nile red) in differentiated 3T3-L1 spheroids; format: cell-based, murine; conditions: for lipid accumulation: 48 h exposure, spheroids after 7 d differentiation; for lipid content of the spheroids: 3T3L1 cells grown and differentiated as spheroids
Protocol: as §1, §2

zebrafish larvae = assay: general toxicity on zebrafish larvae (death, malformations); format: in vivo, Zebrafish (Danio rerio); conditions: same concentration ranges as lipid reducing activity
Excerpt: as §3

Compound | lipolytic activity / free glycerol content in the medium [1] | lipolytic activity / free glycerol content in the medium ([1]; listed as compound 1) | cytotoxicity on cancer cells (cancer cells) [µg/mL] | reduction of viability of spheroids ([2]; 15 μg/mL, 48 h) [%] | reduction of viability of spheroids ([2]; 30 μg/mL, 48 h) [%] | toxicity by calcein AM staining [2] | IC50 [3] [µM] | lipid reducing activity / Nile red staining [3] | lipid accumulation ([4]; 7.5 μg/mL) | lipid accumulation ([4]; 15 μg/mL) | lipid accumulation ([4]; 30 μg/mL) | lipid content of the spheroids [4] | general toxicity (death, malformations) (zebrafish larvae) | fluorescence intensity of Nile red [3] | lipolytic activity / free glycerol content in the medium ([1]; listed as compound 2) | reduction in viability of spheroids ([2]; any concentration, 48 h)
13^2-(S)-hydroxy-pheophytin a [hpa] | did not alter lipolytic activities | No significant alterations | 8.8 to 22 | 20 | 20 | No toxicity was observed | 8.9 ± 0.4 | show a decrease in the Nile red staining | significant reduction of lipid accumulation | significant reduction of lipid accumulation | significant reduction of lipid accumulation | reduced significantly the lipid content | No general toxicity was observed |  |  | 
C=Cc1c(C)c2cc3nc(c4c5[n-]c(cc6nc(cc1[n-]2)C(C)=C6CC)c(C)c5C(=O)[C@@H]4C(=O)OC)[C@@H](CCC(=O)OC/C=C(\C)CCC[C@H](C)CCC[C@H](C)CCCC(C)C)[C@@H]3C.[Mg+2] [chlorophyll a] |  |  |  |  |  |  |  | not present; also recorded: did not demonstrate any lipid reducing activity |  |  |  |  |  | did not reduce the fluorescence intensity |  | 
C=Cc1c(C)c2cc3nc(c4c5[n-]c(cc6nc(cc1[n-]2)C(C=O)=C6CC)c(C)c5C(=O)[C@@H]4C(=O)OC)[C@@H](CCC(=O)OC/C=C(\C)CCC[C@H](C)CCC[C@H](C)CCCC(C)C)[C@@H]3C.[Mg+2] [chlorophyll b] |  |  |  |  |  |  |  | not present; also recorded: did not demonstrate any lipid reducing activity |  |  |  |  |  | did not reduce the fluorescence intensity |  | 
13^2-(S)-hydroxy-pheofarnesin a [hfa] | did not alter lipolytic activities |  |  |  |  | No toxicity was observed | 15.5 ± 1.3 | show a decrease in the Nile red staining |  |  | significant reduction of lipid accumulation | reduced significantly the lipid content | No general toxicity was observed |  | No significant alterations | did not cause any reduction in viability
